Molecular target: T1, GluN1/GluN2A NMDARs (Rattus norvegicus, UniProt P35439+Q00959)
T1 construct: expressed in transfected cells; host or cells: HEK293
Assay: Whole-cell patch clamp recordings in HEK293 cells transfected with GluN1/GluN2A
Assay type: cell-based
Details: for Normalized Potentiation / EC50: Table 1; for Normalized Potentiation: positive modulation of GluN1/GluN2A NMDARs, concentration not given; for EC50: potentiation, read-out: EC50
Protocol: Cells were transfected with a combination of pcDNA3-CMV expression vectors, each of which expressed one of the rat recombinant (GluN2AWT, GluN1WT, GluN2BWT) subunits. The sequences of all plasmids were confirmed by automated DNA sequencing. Human Embryonic Kidney 293 (HEK293 cells) were cultured in Dulbecco's Modified Eagle's Medium (DMEM) (Invitrogen) supplemented with 10% fetal bovine serum (FBS). When HEK293 cells achieved 90% confluence, plasmids of either GluN1 & GluN2A or GluN1 & GluN2B were co-transfected into the cells using Lipofectamine 2000 (Invitrogen, 11668019) according to manufacturer's instructions. HEK293 cells were then maintained in the 37° C. incubator with […] and 5% CO2 for 48 hrs before being used in experiments. The transfection ratios for the NMDAR subunit combinations were all 1:1 (GluN1/GluN2A or GluN1/GluN2B).
Whole cell patch-clamp recordings were performed under voltage-clamp mode using an Axopatch 200B or 1D patch-clamp amplifier (Molecular Devices). Whole-cell currents were recorded at a holding potential of −60 mV unless indicated elsewhere, and signals were filtered at 2 kHz, digitized at 10 kHz (Digidata 1322A). Recording pipettes (3-5 MΩ) were filled with intracellular solution containing (mM): CsCl 140, HEPES 10, Mg-ATP 4, QX-314 5, pH 7.20; osmolarity, 290-295 mOsm. BAPTA (10 mM) was added in the intracellular solution (unless otherwise specified). The coverslips were continuously superfused with extracellular solution containing (mM): NaCl 140, KCl 5.4, HEPES 10, CaCl2 1.3, glucose 20, pH 7.4; osmolarity, 305-315 mOsm. NMDA-induced currents were applied by NMDA through perfusion fast-step (Warner Instruments). With perfusion fast-step system, NMDA application was achieved by using a two-square barrel glass tubing and depending on the age of the cultured neurons, CNQX (10 μM), TTX (0.5 μM) or BIC (10 μM) were added in the extracellular solution to minimize the activation of ionotropic glutamate receptors and voltage-gated sodium channels, respectively. All experiments were performed at room temperature. Recordings from at least six HEK293 cells/neurons were performed for all active compounds. Data were pooled among HEK293 cells or primary neurons and composite dose-response data were fitted by the equation Percentage Response=100×Relative Efficacy/[1+(EC50/Concentration)nH], where EC50 is the concentration of agonist that produces a half-maximal response, relative efficacy is the response at maximally effective concentration relative to the maximal response of glutamate, and nH is the Hill slope.
GluN1/GluN2A NMDAR subtypes are an attractive target for positive allosteric modulation. The present inventors employed in silico computational drug discovery methods to conduct a virtual screen of purchasable lead-like compounds from the ZINC database (Irwin, J., et al. Abstr Pap Am Chem Soc (2005) 230:U1009) and some synthetic compounds to identify potential GluN1/GluN2A-NMDAR modulators. The in silico methods included large-scale docking against the interstice interface of the GluN1/GluN2A heterodimer and consensus scoring to select compounds for empirical testing. Candidate compounds were further screened by using GluN1/GluN2A transiently transfected in human embryonic kidney (HEK293) cells and tested by whole-cell patch clamp recordings.
The inventors used transiently transfected HEK293 cells expressing either GluN1/GluN2A or GluN1/GluN2B NMDARs and tested by whole-cell voltage patch clamp recordings to see whether selected compounds were controlling the subtype selectivity profile of the drugs.
Whole-cell patch clamp recordings were performed to measure glutamate evoked currents with chloride-based pipette solutions at a holding potential of −60 mV.

T1 sequence (Q00959 23-1464, other chains not shown): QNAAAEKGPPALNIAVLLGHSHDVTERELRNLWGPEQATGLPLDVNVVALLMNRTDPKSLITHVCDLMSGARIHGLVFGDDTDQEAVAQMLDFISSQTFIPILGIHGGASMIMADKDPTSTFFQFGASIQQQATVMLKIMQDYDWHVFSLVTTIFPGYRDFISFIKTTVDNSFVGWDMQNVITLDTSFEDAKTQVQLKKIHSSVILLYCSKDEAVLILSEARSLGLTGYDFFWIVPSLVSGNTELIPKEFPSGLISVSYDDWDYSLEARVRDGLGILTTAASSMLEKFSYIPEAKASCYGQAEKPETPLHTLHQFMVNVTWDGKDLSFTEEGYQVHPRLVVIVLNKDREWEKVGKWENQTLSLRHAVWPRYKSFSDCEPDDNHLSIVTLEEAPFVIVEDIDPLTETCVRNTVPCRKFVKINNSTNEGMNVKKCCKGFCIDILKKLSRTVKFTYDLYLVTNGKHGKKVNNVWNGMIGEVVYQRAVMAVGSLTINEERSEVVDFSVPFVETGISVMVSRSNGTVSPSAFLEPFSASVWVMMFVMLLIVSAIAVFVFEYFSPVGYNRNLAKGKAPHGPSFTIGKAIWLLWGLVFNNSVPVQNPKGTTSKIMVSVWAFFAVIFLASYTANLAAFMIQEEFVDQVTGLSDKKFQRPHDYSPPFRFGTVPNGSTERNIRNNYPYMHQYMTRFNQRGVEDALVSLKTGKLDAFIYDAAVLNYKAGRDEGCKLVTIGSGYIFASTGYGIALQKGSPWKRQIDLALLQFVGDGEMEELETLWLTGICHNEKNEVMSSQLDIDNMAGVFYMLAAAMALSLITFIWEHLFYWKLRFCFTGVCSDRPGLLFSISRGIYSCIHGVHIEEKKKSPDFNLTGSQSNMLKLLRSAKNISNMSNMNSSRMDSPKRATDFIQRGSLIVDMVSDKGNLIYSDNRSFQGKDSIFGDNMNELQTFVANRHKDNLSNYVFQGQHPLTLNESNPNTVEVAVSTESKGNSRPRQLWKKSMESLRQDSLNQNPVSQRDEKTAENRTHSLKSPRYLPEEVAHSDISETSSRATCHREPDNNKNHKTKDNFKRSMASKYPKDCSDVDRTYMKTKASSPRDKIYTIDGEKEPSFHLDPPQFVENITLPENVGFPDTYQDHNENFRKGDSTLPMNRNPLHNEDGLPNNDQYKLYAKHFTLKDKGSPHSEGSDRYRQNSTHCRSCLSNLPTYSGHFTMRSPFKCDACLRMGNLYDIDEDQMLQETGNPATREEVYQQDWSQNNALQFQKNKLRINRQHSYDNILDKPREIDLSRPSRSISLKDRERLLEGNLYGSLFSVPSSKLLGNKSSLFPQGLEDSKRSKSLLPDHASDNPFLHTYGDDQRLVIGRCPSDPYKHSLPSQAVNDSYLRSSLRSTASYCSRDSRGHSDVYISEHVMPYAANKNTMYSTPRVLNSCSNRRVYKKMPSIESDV

| Normalized Potentiation [%] | EC50 [nM] | Selectivity for GluN1/GluN2A versus GluN1/GluN2B NMDARs (FIG. 2, HEK293 cells expressing GluN1/GluN2A and GluN1/GluN2B) | SMILES |
| --- | --- | --- | --- |
| 89.84 ± 27.86 |  |  | CCOc1cc(Br)cc(/C=N/NC(=O)c2cccc(C)c2C)c1O [Npam15, (E)-N′-(5-bromo-3-ethoxy-2-hydroxybenzylidene)-2,3-dimethylbenzohydrazide] |
| 2.51 ± 3.79 |  |  | COc1cc(/C=N/NC(=O)c2ccccc2Br)c(Br)c(Br)c1O [Npam40, (E)-2-bromo-N′-(2,3-dibromo-4-hydroxy-5-methoxybenzylidene)benzohydrazide] |
| 435.94 ± 156.01 |  |  | COc1cc(Br)c(Br)c(/C=N/NC(=O)c2cccc(F)c2)c1O [Npam37, (E)-N′-(2,3-dibromo-6-hydroxy-5-methoxybenzylidene)-3-fluorobenzohydrazide] |
| 512.24 ± 28.67 | 220 |  | COc1cc(Br)c(Br)c(/C=N/NC(=O)c2ccc(C(C)(C)C)cc2)c1O [Npam35, (E)-4-(tert-butyl)-N′-(2,3-dibromo-6-hydroxy-5-methoxybenzylidene)benzohydrazide] |
| 466.57 ± 37.78 | 250 |  | CCOc1cc(Br)cc(/C=N/NC(=O)c2ccc(C)cc2Cl)c1O [Npam46, (E)-N′-(5-bromo-3-ethoxy-2-hydroxybenzylidene)-2-chloro-4-methylbenzohydrazide] |
| 33.37 ± 6.39 |  |  | CCOc1cc(Cl)c(Cl)c(/C=N/NC(=O)c2cccc(Br)c2C)c1OC [Npam51, 3-bromo-N′-[(1E)-(2,3-dichloro-5-ethoxy-6-methoxyphenyl)methylidene]-2-methylbenzohydrazide] |
| 87.00 ± 6.48 |  |  | CCOc1cc(Br)cc(/C=N/NC(=O)c2ccc3c(c2)OCCO3)c1O [Npam23, (E)-N′-(5-bromo-3-ethoxy-2-hydroxybenzylidene)-2,3-dihydrobenzo[b][1,4]dioxine-6-carbohydrazide] |
| 105.85 ± 12.62 |  |  | CCOc1cc(Cl)c(Cl)c(/C=N/NCc2ccccc2)c1O [Npam57, 2-[(1E)-(2-benzylhydrazin-1-ylidene)methyl]-3,4-dichloro-6-ethoxyphenol] |
| 163.60 ± 13.94 | 800 | selective for GluN1/GluN2A NMDARs | CCOc1cc(Br)cc(/C=N/NC(=O)c2ccccc2Br)c1O [Npam58, (E)-2-bromo-N′-(5-bromo-3-ethoxy-2-hydroxybenzylidene)benzohydrazide] |
| 213.60 ± 29.34 |  |  | CCOc1cc(Cl)cc(/C=N/NC(=O)c2ccccc2Br)c1O [Npam80, (E)-2-bromo-N′-(5-chloro-3-ethoxy-2-hydroxybenzylidene)benzohydrazide] |
| 15.11 ± 8.78 |  |  | CCOc1cccc(/C=N/NC(=O)c2ccccc2Br)c1O [Npam31, 2-bromo-N′-[(1E)-(3-ethoxy-2-hydroxyphenyl)methylidene]benzohydrazide] |
| 21.48 ± 2.89 |  |  | CCOc1cc(Cl)c(Cl)c(/C=N/NC(=O)Cc2ccccc2)c1O [Npam56, N′-[(1E)-(2,3-dichloro-5-ethoxy-6-hydroxyphenyl)methylidene]-2-phenylacetohydrazide] |
| 195.38 ± 40.11 |  |  | COc1cc(Br)c(Br)c(/C=N/NC(=O)c2ccc(Cl)cc2)c1O [Npam13, (E)-4-chloro-N′-(2,3-dibromo-6-hydroxy-5-methoxybenzylidene)benzohydrazide] |
| 206.28 ± 33.62 |  |  | CCOc1cc(Br)c(Br)c(/C=N/NC(=O)c2cccc(Cl)c2C)c1O [Npam10, 3-chloro-N′-[(1E)-(2,3-dibromo-5-ethoxy-6-hydroxyphenyl)methylidene]-2-methylbenzohydrazide] |
| 4.02 ± 4.79 |  |  | O=C(N/N=C/c1cccc(O)c1O)c1ccc(Cl)cc1Cl [Npam36, (E)-2,4-dichloro-N′-(2,3-dihydroxybenzylidene)benzohydrazide] |
| 110.23 ± 4.70 |  |  | CCOc1cc(Cl)c(Cl)c(/C=N/NC(=O)c2ccccc2OC)c1O [Npam53, (E)-N′-(2,3-dichloro-5-ethoxy-6-hydroxybenzylidene)-2-methoxybenzohydrazide] |

| Normalized Potentiation [%] | EC50 [nM] | Selectivity for GluN1/GluN2A versus GluN1/GluN2B NMDARs (FIG. 2, HEK293 cells expressing GluN1/GluN2A and GluN1/GluN2B) | SMILES |
| --- | --- | --- | --- |
| 441.71 ± 65.24 | 90 |  | COc1cc(Br)c(Br)c(/C=N/NC(=O)c2ccccc2)c1O [Npam59, (E)-N′-(2,3-dibromo-6-hydroxy-5-methoxybenzylidene)benzohydrazide] |
| 51.95 ± 11.29 |  |  | COc1cc(Br)c(Br)c(/C=N/NC(=O)c2cccnc2)c1O [Npam39, (E)-N′-(2,3-dibromo-6-hydroxy-5-methoxybenzylidene)nicotinohydrazide] |
| 36.90 ± 5.62 |  |  | O=C(N/N=C/c1cccc(O)c1O)c1cccc(Br)c1 [Npam16, (E)-3-bromo-N′-(2,3-dihydroxybenzylidene)benzohydrazide] |
| 530.06 ± 114.00 | 190 |  | CCOc1cc(Cl)c(Cl)c(/C=N/NC(=O)c2cc(Cl)ccc2Br)c1O [Npam49, 2-bromo-5-chloro-N′-[(1E)-(2,3-dichloro-5-ethoxy-6-hydroxyphenyl)methylidene]benzohydrazide] |
| 32.10 ± 3.02 |  |  | CCOc1cc(Cl)c(Cl)c(/C=N/NC(=O)c2ccccc2)c1O [Npam55, (E)-N′-(2,3-dichloro-5-ethoxy-6-hydroxybenzylidene)benzohydrazide] |
| 196.21 ± 35.93 |  |  | CCOc1cc(Br)cc(/C=N/NC(=O)c2ccccc2C)c1O [Npam82, (E)-N′-(5-bromo-3-ethoxy-2-hydroxybenzylidene)-2-methylbenzohydrazide] |
| 131.85 ± 23.20 |  |  | COc1cc(Cl)cc(/C=N/NC(=O)c2ccccc2Br)c1O [Npam20, (E)-2-bromo-N′-(5-chloro-2-hydroxy-3-methoxybenzylidene)benzohydrazide] |
| 175.08 ± 14.42 |  |  | O=C(N/N=C/c1cc(Cl)cc(Cl)c1O)c1ccccc1Br [Npam26, (E)-2-bromo-N′-(3,5-dichloro-2-hydroxybenzylidene)benzohydrazide] |
| 120.68 ± 9.61 |  |  | COc1cc(Cl)cc(/C=N/NC(=O)c2ccccc2Br)c1O [Npam29, (E)-2-bromo-N′-(5-chloro-2-hydroxy-3-methoxybenzylidene)benzohydrazide] |
| −12.47 ± 2.06 |  |  | Cc1ccccc1C(=O)N/N=C/c1cccc(O)c1O [Npam34, (E)-N′-(2,3-dihydroxybenzylidene)-2-methylbenzohydrazide] |
| 43.04 ± 6.55 |  |  | COc1cccc(/C=N/NC(=O)c2ccccc2C)c1O [Npam42, (E)-N′-(2-hydroxy-3-methoxybenzylidene)-2-methylbenzohydrazide] |
| −14.32 ± 2.20 |  |  | COc1cc(Br)cc(/C=N/NC(=O)c2ccc(NC(=O)c3ccc(C)cc3)cc2)c1O [Npam25, (E)-N-(4-(2-(5-bromo-2-hydroxy-3-methoxybenzylidene)hydrazinecarbonyl)phenyl)-4-methylbenzamide] |
| 30.25 ± 2.87 |  |  | CCOc1cc(Br)cc(/C=N/NC(=O)c2ccncc2)c1O [Npam28, N′-[(1E)-(5-bromo-3-ethoxy-2-hydroxyphenyl)methylidene]pyridine-4-carbohydrazide] |
| 43.41 ± 13.48 |  |  | CCOc1cc(Br)cc(/C=N/NC(=O)c2ccccc2Cl)c1O [Npam54, N′-[(1E)-(5-bromo-3-ethoxy-2-hydroxyphenyl)methylidene]-2-chlorobenzohydrazide] |
| 443.25 ± 83.42 | 150 |  | CCOc1cc(Cl)c(Cl)c(/C=N/NC(=O)c2ccc(C)cc2Cl)c1O [Npam44, (E)-2-chloro-N′-(2,3-dichloro-5-ethoxy-6-hydroxybenzylidene)-4-methylbenzohydrazide] |

— patent publication US11166924B2, “N-methyl-d-aspartate receptor allosteric modulators and methods for their use” (Qingdao Primedicine Pharmaceutical Company, Ltd., priority 2016, dated 2021)
